Reference: DBAASP
≈ marks a conversion by molar mass, not a printed value.

What was measured:
Experiment in all cases: ≥ marks a high value that may be exact or a test limit, other limits are often not marked, values filed in µg/mL are converted to µM
[1] = tested on: Staphylococcus aureus PCM 1944
[2] = tested on: Escherichia coli PCM 2057
[3] = tested on: Enterococcus faecalis ATCC 29212
Bacteroides fragilis = tested on: Bacteroides fragilis
[4] = tested on: Salmonella enterica subsp. enterica serovar Typhimurium LT2
[5] = tested on: Staphylococcus aureus T7/20
Fusobacterium nucleatum = tested on: Fusobacterium nucleatum
Clostridium septicum = tested on: Clostridium septicum
[6] = tested on: Escherichia coli ATCC 25922
[7] = tested on: Peptoniphilus asaccharolyticus ATCC 29743
[8] = tested on: Staphylococcus epidermidis RP62A
[9] = tested on: Enterobacter cloacae HNTCC 53001
[10] = tested on: Proteus mirabilis ATCC 25933
[11] = tested on: Clostridium perfringens ATCC 10543
[12] = tested on: Peptostreptococcus anaerobius
[13] = tested on: Staphylococcus aureus T7/5
[14] = tested on: Prevotella melaninogenica
[15] = tested on: Clostridium tertium ATCC 19465
[16] = tested on: Cutibacterium acnes ATCC 11828
[17] = tested on: Staphylococcus aureus T27/9
[18] = tested on: Staphylococcus aureus NCTC 8325
[19] = tested on: Pseudomonas aeruginosa ATCC 27853
[20] = tested on: Fusobacterium varium ATCC 27725
[21] = tested on: Klebsiella pneumoniae KK3 9904
Cutibacterium acnes = tested on: Cutibacterium acnes
[22] = tested on: Candida albicans ATCC 90028
[23] = tested on: Bacteroides fragilis ATCC 25285
[24] = tested on: Pseudomonas aeruginosa KCTC 1637
[25] = tested on: Staphylococcus aureus CCARM 3543
[26] = tested on: Staphylococcus epidermidis KCTC 1917
[27] = tested on: Staphylococcus aureus KCTC 1621
[28] = tested on: Bacillus subtilis KCTC 3068
[29] = tested on: Pseudomonas aeruginosa CCARM 2095
[30] = tested on: Escherichia coli KCTC 1682
[31] = tested on: Staphylococcus aureus CCARM 3001
[32] = tested on: Pseudomonas aeruginosa CCARM 2109
[33] = tested on: Salmonella typhimurium KCTC 1926
[34] = tested on: Staphylococcus aureus IFO 13276
[35] = tested on: Pseudomonas aeruginosa IFO 3445
[36] = tested on: Aspergillus niger IFO 4416
Bacillus cereus IFO 3514 = tested on: Bacillus cereus IFO 3514
[37] = tested on: Kitasatospora kifunensis MN1
[38] = tested on: Staphylococcus aureus ATCC 33591
[39] = tested on: Levilactobacillus brevis IFO 3345
[40] = tested on: Geobacillus stearothermophilus IFO12550
[41] = tested on: Saccharomyces cerevisiae KK4
[42] = tested on: Enterococcus faecalis JCM 8726
[43] = tested on: Salmonella typhimurium IFO 12529
Candida boidinii MIP 104 = tested on: Candida boidinii MIP 104
[44] = tested on: Escherichia coli IFO 3301
[45] = tested on: Candida albicans IFO 1385
[46] = tested on: Bacillus subtilis IFO 3336
[47] = tested on: Agrobacterium tumefaciens LBA 4404
[48] = tested on: Bacillus subtilis ATCC 6633
[49] = tested on: Pseudomonas fluorescens ATCC 13525
[50] = tested on: Staphylococcus aureus ATCC 2592

CC[C@H](C)[C@@H]1NC(=O)[C@H](CO)NC(=O)[C@H](CCCCN)NC(=O)[C@@H](N)CSSC[C@@H](C(=O)O)NC(=O)[C@H](Cc2ccccc2)NC1=O [CKSIFC]
MIC [1]: ≥ 1430 µM
MIC [2]: ≥ 1430 µM

CC[C@H](C)[C@H](NC(=O)[C@H](CO)NC(=O)[C@H](CO)NC(=O)[C@H](CC(C)C)NC(=O)[C@@H](N)Cc1ccccc1)C(=O)NCC(=O)N[C@@H](CCCCN)C(=O)N[C@H](C(=O)N[C@@H](CC(C)C)C(=O)NCC(=O)N[C@@H](CC(N)=O)C(=O)N[C@@H](CC(C)C)C(=O)N[C@@H](CC(C)C)C(N)=O)[C@@H](C)CC [FLSSIGKILGNLL]
MIC [3]: 40 µM (≈ 54.9 µg/mL)
MIC (Bacteroides fragilis): ≥ 50 µM
MIC [4]: ≥ 50 µM
MIC [5]: 20 µM (≈ 27.5 µg/mL)
MIC (Fusobacterium nucleatum): ≥ 50 µM
MIC (Clostridium septicum): ≥ 50 µM
MIC [6]: 40 µM (≈ 54.9 µg/mL)
MIC [7]: ≥ 50 µM
MIC [8]: 20 µM (≈ 27.5 µg/mL)
MIC [9]: ≥ 40 µM
MIC [10]: ≥ 100 µM
MIC [11]: 25 µM (≈ 34.3 µg/mL)
MIC [12]: 25 µM (≈ 34.3 µg/mL)
MIC [13]: 20 µM (≈ 27.5 µg/mL)
MIC [14]: 25 µM (≈ 34.3 µg/mL)
MIC [15]: 12.5 µM (≈ 17.2 µg/mL)
MIC [16]: 6 µM (≈ 8.24 µg/mL)
MIC [17]: ≥ 40 µM
MIC [18]: 10 µM (≈ 13.7 µg/mL)
MIC [19]: 160 µM (≈ 220 µg/mL)
MIC [20]: ≥ 50 µM
MIC [21]: ≥ 80 µM
MIC (Cutibacterium acnes): 12.5 µM (≈ 17.2 µg/mL)
MIC [22]: ≥ 160 µM
MIC [23]: ≥ 50 µM

CC(C)C[C@H](NC(=O)[C@H](Cc1c[nH]c2ccccc12)NC(=O)[C@H](CCCCN)NC(=O)[C@H](CC(C)C)NC(=O)[C@H](Cc1c[nH]c2ccccc12)NC(=O)[C@H](CC(C)C)NC(=O)[C@H](CCCCN)NC(=O)[C@H](Cc1c[nH]c2ccccc12)NC(=O)[C@H](CC(C)C)NC(=O)[C@@H](N)CCCCN)C(=O)N[C@@H](CCCCN)C(N)=O [KLWKLWLKWLK]
MIC [24]: 4 µM (≈ 6.16 µg/mL)
MIC [25]: 4 µM (≈ 6.16 µg/mL)
MIC [26]: 4 µM (≈ 6.16 µg/mL)
MIC [27]: 2 µM (≈ 3.08 µg/mL)
MIC [28]: 4 µM (≈ 6.16 µg/mL)
MIC [29]: 16 µM (≈ 24.7 µg/mL)
MIC [30]: 4 µM (≈ 6.16 µg/mL)
MIC [31]: 8 µM (≈ 12.3 µg/mL)
MIC [32]: 16 µM (≈ 24.7 µg/mL)
MIC [33]: 2 µM (≈ 3.08 µg/mL)

NC(N)=NCCC[C@H](NC(=O)[C@H](Cc1cnc[nH]1)NC(=O)[C@H](CCCN=C(N)N)NC(=O)[C@H](Cc1cnc[nH]1)NC(=O)[C@H](CCCN=C(N)N)NC(=O)[C@H](Cc1cnc[nH]1)NC(=O)[C@H](CCCN=C(N)N)NC(=O)[C@H](Cc1cnc[nH]1)NC(=O)[C@@H](N)CCCN=C(N)N)C(=O)N[C@@H](Cc1cnc[nH]1)C(=O)O [RHRHRHRHRH]
MIC [34]: ≥ 33.7 µM
MIC [35]: 6.74 µM (≈ 10 µg/mL)
MIC [36]: ≥ 33.7 µM
MIC (Bacillus cereus IFO 3514): ≥ 269 µM
MIC [37]: ≥ 269 µM
MIC [38]: ≥ 33.7 µM
MIC [39]: 6.74 µM (≈ 10 µg/mL)
MIC [40]: 6.74 µM (≈ 10 µg/mL)
MIC [41]: ≥ 67.4 µM
MIC [42]: 6.74 µM (≈ 10 µg/mL)
MIC [43]: ≥ 101 µM
MIC (Candida boidinii MIP 104): 6.74 µM (≈ 10 µg/mL)
MIC [44]: 6.74 µM (≈ 10 µg/mL)
MIC [45]: ≥ 67.4 µM
MIC [46]: 6.74 µM (≈ 10 µg/mL)
MIC [47]: 6.74 µM (≈ 10 µg/mL)

CC[C@H](C)[C@H](NC(=O)[C@H](CCCCN)NC(=O)[C@H](CC(C)C)NC(=O)[C@H](Cc1ccccc1)NC(=O)[C@H](CO)NC(=O)[C@H](CC(C)C)NC(=O)[C@H](Cc1ccccc1)NC(=O)[C@H](CCCN=C(N)N)NC(=O)[C@H](CO)NC(=O)[C@H](CC(C)C)NC(=O)[C@@H](N)CO)C(=O)N[C@H](C(=O)N[C@@H](Cc1ccc(O)cc1)C(=O)N1CCC[C@H]1C(=O)N1CCC[C@H]1C(=O)N[C@@H](C)C(=O)N[C@@H](Cc1ccccc1)C(N)=O)C(C)C [SLSRFLSFLKIVYPPAF]
MIC [48]: 25.2 µM (≈ 50 µg/mL)
MIC [49]: ≥ 50.4 µM
MIC [50]: 25.2 µM (≈ 50 µg/mL)
